# From patent publication US7456296B2, “Method for preparation of crystalline perindopril erbumine” (Lupin Ltd, priority 2003, dated 2008)
# Legend:
# [1] = Compressibility Index (Flowability) by standard methods; format: physicochemical; conditions: crystalline powder
# Method: (§1) Compressability Index, or in other words the Flowability of the two materials were determined by standard methods practiced in the art. The Particle Size Distribution was determined using a Mastersizer 2000, Version 2 instrument with cyclohexane as the dispersant.
# [2] = Particle Size Distribution, Mastersizer 2000 with cyclohexane as the dispersant; format: physicochemical
# Method: as §1
# [3] = final printed label of ACEON Tablets, cited from earlier work
Compressibility Index [1],Particle Size Distribution (10%) [2],Particle Size Distribution (50%) [2],Particle Size Distribution (90%) [2],SMILES,solubility in alcohol ([3]; alcohol),solubility in chloroform ([3]; chloroform),solubility in water ([3]; water)
20.00,16.39μ (10%);,70.18μ (50%);,188.11μ (90%),CCC[C@H](N[C@@H](C)C(=O)N1[C@H](C(=O)O)C[C@@H]2CCCC[C@@H]21)C(=O)OCC [Perindopril erbumine crystallized as per the method of U.S. ],,,
23.8,9.06μ (10%);,36.37μ (50%);,119.78μ (90%),CCC[C@H](N[C@@H](C)C(=O)N1[C@H](C(=O)O)C[C@@H]2CCCC[C@@H]21)C(=O)OCC [Perindopril erbumine crystallized as per the method of the p],,,
,,,,CCC[C@H](N[C@@H](C)C(=O)N1[C@H](C(=O)O)C[C@@H]2CCCC[C@@H]21)C(=O)OCC [perindopril erbumine],freely soluble,freely soluble,60 % w/w
